Measurements as given in US20090226527A1, “Particulate-stabilized injectable pharmacutical compositions of posaconazole” (priority 2004, published 2009).
In brackets after ≈: the same amount, converted by molar mass. Several values for one entry are separate records, joined by “and”; a condition that tells them apart may be missing. Equal values may be shown once. Read-outs that look alike come from different tables or passages of the source.

Test system: infectious agents (strains tested)
Test: organism not typed
Type: cell-based

SMILES: OC(Cn1cncn1)(Cn1cncn1)c1ccc(F)cc1F [FLZ]
- Geometric Mean MIC: 16.450 µg/mL and 19.027 µg/mL
- Geometric Mean MIC (Absidia spp): 143.675 µg/mL
- Geometric Mean MIC (Apophysomyces spp): 128.000 µg/mL
- MIC[90] (Apophysomyces spp): (128.0) μg/mL
- Geometric Mean MIC (Aspergillus flavus): 220.898 µg/mL
- MIC[90] (Aspergillus fumigatus): 512.0 µg/mL (≈ 1670 µM)
- Geometric Mean MIC (Aspergillus nidulans): 76.109 µg/mL
- MIC[90] (Aspergillus nidulans): (32.0-128.0) μg/mL
- Geometric Mean MIC (Aspergillus niger): 234.753 µg/mL
- Geometric Mean MIC (Aspergillus sydowii): 115.933 µg/mL
- Geometric Mean MIC (Aspergillus terreus): 208.327 µg/mL
- Geometric Mean MIC (Aspergillus ustus): 172.275 µg/mL
- Geometric Mean MIC (Bipolaris spp): 64.000 µg/mL
- MIC[90] (Bipolaris spp): (64.0) μg/mL
- Geometric Mean MIC (Bjerkandera adusta): 4.000 µg/mL
- MIC[90] (Bjerkandera adusta): 4.0 µg/mL (≈ 13.1 µM)
- Geometric Mean MIC (Blastomyces dermatitidis): 2.191 µg/mL
- MIC[90] (Blastomyces dermatitidis): 16.0 µg/mL (≈ 52.2 µM)
- Geometric Mean MIC (Candida albicans): 0.415 µg/mL
- MIC[90] (Candida albicans): 2.0 µg/mL (≈ 6.53 µM)
- Geometric Mean MIC (Candida dubliniensis): 0.454 µg/mL
- MIC[90] (Candida dubliniensis): 32.0 µg/mL (≈ 104 µM)
- Geometric Mean MIC (Candida famata): 4.084 µg/mL
- MIC[90] (Candida famata): 32.0 µg/mL (≈ 104 µM)
- Geometric Mean MIC (Candida glabrata): 9.719 µg/mL
- MIC[90] (Candida glabrata): 64.0 µg/mL (≈ 209 µM)
- Geometric Mean MIC (Candida guilliermondii): 4.000 µg/mL
- MIC[90] (Candida guilliermondii): 32.0 µg/mL (≈ 104 µM)
- Geometric Mean MIC (Candida kefyr): 0.500 µg/mL
- MIC[90] (Candida kefyr): 4.0 µg/mL (≈ 13.1 µM)
- Geometric Mean MIC (Candida krusei): 32.521 µg/mL
- MIC[90] (Candida krusei): 64.0 µg/mL (≈ 209 µM)
- Geometric Mean MIC (Candida lusitaniae): 0.627 µg/mL
- MIC[90] (Candida lusitaniae): 2.0 µg/mL (≈ 6.53 µM)
- Geometric Mean MIC (Candida parapsilosis): 0.910 µg/mL
- MIC[90] (Candida parapsilosis): 2.0 µg/mL (≈ 6.53 µM)
- Geometric Mean MIC (Candida rugosa): 3.391 µg/mL
- MIC[90] (Candida rugosa): 16.0 µg/mL (≈ 52.2 µM)
- Geometric Mean MIC (Candida tropicalis): 0.961 µg/mL
- MIC[90] (Candida tropicalis): 4.0 µg/mL (≈ 13.1 µM)
- Geometric Mean MIC (Candida zeylanoides): 0.354 µg/mL
- MIC[90] (Candida zeylanoides): (0.125-1.0) μg/mL
- Geometric Mean MIC (Cryptococcus laurentii): 5.040 µg/mL
- MIC[90] (Cryptococcus laurentii): (4.0-8.0) μg/mL
- Geometric Mean MIC (Cryptococcus neoformans): 1.781 µg/mL
- MIC[90] (Cryptococcus neoformans): 8.0 µg/mL (≈ 26.1 µM)
- Geometric Mean MIC (Curvularia spp): 16.000 µg/mL
- MIC[90] (Curvularia spp): (16.0) μg/mL
- Geometric Mean MIC (Epidermophyton floccosum): 1.447 µg/mL
- MIC[90] (Epidermophyton floccosum): 2.0 µg/mL (≈ 6.53 µM)
- Geometric Mean MIC (Exophiala dermatidis): 8.000 µg/mL
- MIC[90] (Exophiala dermatidis): (8.0) μg/mL
- Geometric Mean MIC (Fonsecae pedrosoi): 64.000 µg/mL
- MIC[90] (Fonsecae pedrosoi): (64.0) μg/mL
- Geometric Mean MIC (Kluyveromyces marxianus): 0.500 µg/mL
- MIC[90] (Kluyveromyces marxianus): (0.25-1.0) μg/mL
- Geometric Mean MIC (Microsporum canis): 2.000 µg/mL
- MIC[90] (Microsporum canis): 4.0 µg/mL (≈ 13.1 µM)
- Geometric Mean MIC (Microsporum gypseum): 16.000 µg/mL
- MIC[90] (Microsporum gypseum): (4.0-128.0) μg/mL
- Geometric Mean MIC (Microsporum persicolor): 128.000 µg/mL
- MIC[90] (Microsporum persicolor): (128.0) μg/mL
- Geometric Mean MIC (Mucor spp): 207.937 µg/mL
- Geometric Mean MIC (Paecilomyces spp): 141.323 µg/mL
- Geometric Mean MIC (Paracoccidioides brasiliensis): 0.766 µg/mL
- MIC[90] (Paracoccidioides brasiliensis): 4.0 µg/mL (≈ 13.1 µM)
- Geometric Mean MIC (Penicillium spp): 220.996 µg/mL
- Geometric Mean MIC (Pichia anomala): 2.670 µg/mL
- MIC[90] (Pichia anomala): 4.0 µg/mL (≈ 13.1 µM)
- Geometric Mean MIC (Pichia etchel): 0.125 µg/mL
- MIC[90] (Pichia etchel): (0.125) μg/mL
- Geometric Mean MIC (Pichia ohmeri): 4.000 µg/mL
- MIC[90] (Pichia ohmeri): (4.0) μg/mL
- Geometric Mean MIC (Pseudallescheria boydii): 41.237 µg/mL
- MIC[90] (Pseudallescheria boydii): 128.0 µg/mL (≈ 418 µM)
- Geometric Mean MIC (Ramichloridium obovoideum): 22.627 µg/mL
- MIC[90] (Ramichloridium obovoideum): (16.0-32.0) μg/mL
- Geometric Mean MIC (Rhizopus spp): 229.461 µg/mL
- Geometric Mean MIC (Saccharomyces cerevisiae): 2.845 µg/mL
- MIC[90] (Saccharomyces cerevisiae): 16.0 µg/mL (≈ 52.2 µM)
- Geometric Mean MIC (Scedosporium apiospermum): 84.449 µg/mL
- Geometric Mean MIC (Trichophyton mentagrophytes): 9.190 µg/mL
- MIC[90] (Trichophyton mentagrophytes): 64.0 µg/mL (≈ 209 µM)
- Geometric Mean MIC (Trichophyton raubitschekii): 128.000 µg/mL
- MIC[90] (Trichophyton raubitschekii): (128.0) μg/mL
- Geometric Mean MIC (Trichophyton rubrum): 4.407 µg/mL
- MIC[90] (Trichophyton rubrum): 32.0 µg/mL (≈ 104 µM)
- Geometric Mean MIC (Trichophyton soudanense): 128.000 µg/mL
- MIC[90] (Trichophyton soudanense): (128.0) μg/mL
- Geometric Mean MIC (Trichophyton terrestre): 1.000 µg/mL
- MIC[90] (Trichophyton terrestre): (1.0) μg/mL
- Geometric Mean MIC (Trichophyton tonsurans): 3.775 µg/mL
- MIC[90] (Trichophyton tonsurans): 32.0 µg/mL (≈ 104 µM)
- Geometric Mean MIC (Trichosporon spp): 12.699 µg/mL
- MIC[90] (Trichosporon spp): (4.0-64.0) μg/mL
- Geometric Mean MIC (Yarrowia lipolytica): 1.741 µg/mL
- MIC[90] (Yarrowia lipolytica): (0.125-32.0) μg/mL
